Laboratory results reported in patent publication US20250236878A1 (priority 2019, published 2025).
Like-named read-outs stand apart in the source and are kept apart here.

Key:
[1] = system: Citrus trees infected with Candidatus Liberibacter asiaticus; format: in vivo, Citrus x paradisi
[2] = system: Citrus trees infected with CLas; test: Recovery composition trunk injection: 'Valencia' orange fruit yield (Examples 3, 19); format: in vivo, Citrus sinesis; conditions: for Average Yield (Relative to Untreated) / Average Yield (kg per tree): 'Valencia' orange; for Average Yield (Relative to Untreated) / Average Yield (kg per tree) / increased yield compared to the untreated control: trunk injection; for increased yield compared to the untreated control: 'Valencia' trees; for yield, average relative to control: 'Valencia', combined average of 2 sites (Table 56)
[3] = system: Citrus trees infected with CLas; parameters: species or system Citrus sinesis; conditions: in vivo
[4] = system: Citrus trees infected with CLas; format: in vivo, Citrus x paradisi; Citrus sinesis; conditions: average of 'Ruby Red' and 'Valencia'
From the text: Treatments as previously described in Example 3; β-1,3-Endoglucanase from barley SEQ ID NO: 731 (Treatment 1) and Bt.4Q7Flg22 from Bacillus thurigiensis SEQ ID NO: 226 (Treatment 5) increased fruit yield (kg/tree) as described in Table 56. Fruit quality, and juice quality of ‘Valencia’ oranges are described in Table 57.
For direct comparison of the treatment results between grapefruit (‘Ruby Red’) and orange (‘Valencia’) are referenced in Table 56 above.

[5] = system: Citrus trees infected with Candidatus Liberibacter asiaticus (CLas); parameters: species or system Citrus sinensis; conditions: in vivo
[6] = system: Citrus trees infected with Candidatus Liberibacter asiaticus (CLas); parameters: species or system Citrus sinensis; conditions: in vivo; remark: listed apart in the source
[7] = system: Citrus trees infected with Candidatus Liberibacter asiaticus; parameters: species or system Citrus x paradisi; conditions: in vivo
[8] = system: corn hybrids Beck's 6127 BHMF and 6127 DVMF; conditions: in vivo
[9] = system: Candidatus Liberibacter asiaticus (CLas); conditions: in vivo
[10] = system: field mustard (Brassica rapa) seedlings; test: Root hair and lateral root elongation in liquid-culture grown field mustard seedlings (Example 13); conditions: for Experiment A: Average Root Hair Length Per Plant (mm) / Experiment B: Average Length of Three Longest Lateral Roots Per Plant (mm) / Experiment A: Average Root Hair Length Per Plant, % of UTC / Experiment B: Average Length of Three Longest Lateral Roots Per Plant, % of UTC: field mustard seedlings, peptide 10 μM; for Experiment A: Average Root Hair Length Per Plant (mm) / Experiment B: Average Length of Three Longest Lateral Roots Per Plant (mm): about three days; for Experiment A: Average Root Hair Length Per Plant (mm): UTC = 0.137; for Experiment B: Average Length of Three Longest Lateral Roots Per Plant (mm): UTC = 0.632
[11] = system: HLB-infected citrus trees; test: Citrus trials of Examples 20-24: fruit yield, size, count and drop, average over orange and grapefruit trials; format: in vivo, Citrus sinesis; Citrus paradisi
Procedure: All fruit with a diameter greater than or equal to 1.6 inches (40 mm) were hand-picked and collected for each tree. The total “Fruit Weight” (in kilograms) per individual tree was measured and recorded. Trees with total fruit weights less than or greater than 2 standard deviations (2STDEV) from the trial mean were considered to be outliers and removed from the dataset. Fruit size was assessed as the “Average Weight per Fruit” in grams (weight of 20 random fruit per tree, divided by 20) and “Average Fruit Diameter” in millimeters, as described in Example 1. The “Average Fruit Count” per tree was assessed as the total “Fruit Weight” divided by “Average Weight per Fruit”. “Fruit Drop” was assessed as for Example 1. Fruit quality was assessed as for Example 2, with the exception that one set of fruit consisted for 15 total fruit, each corresponding to a sampling of 3 fruit from 5 trees of the same experimental treatment block. Each set of 15 fruit were weighed (gram; g) and then juiced together. Average yield, % fruit drop, fruit size, and juice quality for each of the tested compositions are described in Examples 20-24.

[12] = system: HLB-infected citrus trees; parameters: species or system Citrus sinesis; Citrus paradisi; conditions: in vivo
[13] = liquid culture, approximately three days

N[C@@H](CS)C(=O)O [L-Cysteine, L-cysteine]
Average Yield (Relative to Untreated) ([1]; […], trunk injection): (101%)
Average Yield (kg per tree) ([1]; […], trunk injection): 34.8 kg per tree
Average Yield (Relative to Untreated) [2]: (105%)
Average Yield (kg per tree) [2]: 42.3 kg per tree
increased yield compared to the untreated control [2]: +2.0 kg per tree
yield, average relative to control [2]: 103%
Average Fruit Diameter (Relative to Untreated) [3]: (104%)
Average Fruit Diameter (mm) [3]: 62.52 mm
Brix:CA Ratio [3]: 12.76
Brix:CA Ratio (Relative to Untreated) [3]: (+1.51)
fruit size and ^oBrixc to Citric Acid ratio (Brix:CA) relative to the untreated control [3]: increased
Average Yield (Relative to Untreated), Average of 2 sites [4]: (103%)

DRLSSGKRINSAKDDAAGLAIA (listed as Bacillus thuringiensis) [Bt.4Q7Flg22Syn01, Modified FLG22-Bt4Q7 (S13K)]
total increased yield (kg) per tree [5]: 26%
Brix [6]: 9.4
juice content [6]: 46%

DRLSSGKRINSASDDAAGLAIA (listed as Bacillus thuringiensis) [Bt.4Q7Flg22, Flg22 flagellin-associated polypeptide from Bacillus thuringiensis strain 4Q7]
total increased yield (kg) per tree [5]: 33%
Average Yield (Relative to Untreated) ([1]; in vivo): (108%)
Average Yield (kg per tree) ([1]; in vivo): 37.2 kg per tree
increased yield compared to the untreated control ([1]; in vivo): 2.6 kg per tree
fruit size, juice volume, % juice content and ^oBrixc to Citric Acid ratio (Brix:CA) relative to the untreated control [7]: increased
Average Yield (Relative to Untreated) [2]: (119%)
Average Yield (kg per tree) [2]: 48.1 kg per tree
increased yield compared to the untreated control [2]: 7.8 kg per tree
yield, average relative to control [2]: 113%
Average Fruit Diameter (Relative to Untreated) [3]: (101%)
Average Fruit Diameter (mm) [3]: 60.72 mm
Brix:CA Ratio [3]: 12.11
Brix:CA Ratio (Relative to Untreated) [3]: (+0.86)
fruit size and ^oBrixc to Citric Acid ratio (Brix:CA) relative to the untreated control [3]: increased
average yield benefit over the control corn plants [8]: +6.44 flu/Ac
decreased bacterial titers relative to the untreated control [9]: 20%
reduction in CLas bacterial titers compared to initial levels [9]: 16%
Average Yield (Relative to Untreated), Average of 2 sites [4]: (113%)

GGARAAPAGEER (Brachypodium distachyon) [SEQ ID NO: 747]
Experiment A: Average Root Hair Length Per Plant (mm) ([10]; liquid culture): 0.137 mm
Experiment B: Average Length of Three Longest Lateral Roots Per Plant (mm) ([10]; liquid culture): 0.959 mm
Experiment A: Average Root Hair Length Per Plant, % of UTC [10]: (99% of UTC)
Experiment B: Average Length of Three Longest Lateral Roots Per Plant, % of UTC [10]: (152% of UTC)
average lateral root length compared to untreated control [10, 13]: Increased
average root hair length compared to untreated control [10, 13]: did not improve

GGIRAAPT (listed as Physcomitrella patens) [SEQ ID NO: 745]
Experiment A: Average Root Hair Length Per Plant (mm) ([10]; liquid culture): 0.145 mm
Experiment B: Average Length of Three Longest Lateral Roots Per Plant (mm) ([10]; liquid culture): 0.853 mm
Experiment A: Average Root Hair Length Per Plant, % of UTC [10]: (105% of UTC)
Experiment B: Average Length of Three Longest Lateral Roots Per Plant, % of UTC [10]: (135% of UTC)
average lateral root length compared to untreated control [10, 13]: Increased
average root hair length compared to untreated control [10, 13]: increased

GGIRAAPTGKER [SEQ ID NO: 754]
average lateral root length compared to untreated control [10, 13]: Increased
average root hair length compared to untreated control [10, 13]: increased

GGIRAAPTGNER (Glycine max) [GmRHPP]
increased yield (kg fresh fruit per tree) relative to control trees treated with surfactant control alone, on average ([11]; foliar (Table 73)): 13.9%
decrease in fruit drop relative to surfactant control, on average ([11]; foliar (Table 74)): 22%
more fruit retained at harvest relative to surfactant control, on average ([11]; foliar (Table 74)): 19%
effect on fruit size ([11]; foliar (Table 75)): no effect
fruit weigh more than fruit from control trees treated with surfactant alone, on average ([11]; foliar (Table 75)): 6.2%
^oBrixc:Citric Acid Ratio and pounds-solids per tree [12]: increased
more total sugar than control trees treated with surfactant alone, on average [12]: 13.500
reduction in CLas bacterial titers compared to initial levels [9]: 17%
Experiment A: Average Root Hair Length Per Plant (mm) ([10]; liquid culture): 0.172 mm
Experiment B: Average Length of Three Longest Lateral Roots Per Plant (mm) ([10]; liquid culture): 0.971 mm
Experiment A: Average Root Hair Length Per Plant, % of UTC [10]: (125% of UTC)
Experiment B: Average Length of Three Longest Lateral Roots Per Plant, % of UTC [10]: (154% of UTC)
average lateral root length compared to untreated control [10, 13]: Increased
average root hair length compared to untreated control [10, 13]: increased
increases in average lateral root length relative to control [10, 13]: +54%
increases in root hair length relative to control [10, 13]: +25%

GGIRAARTGNER [SEQ ID NO: 753]
average lateral root length compared to untreated control [10, 13]: Increased
average root hair length compared to untreated control [10, 13]: increased
